Results on 17 molecules are retold here after patent US9296734B2 (AMGEN INC., priority 2013, dated 2016).

Like-named read-outs stand apart in the source and are kept apart here.

In general, IC50 refers to the concentration at which inhibition is half-maximal.

For test [1], the system named is Aβ40 in conditioned medium of cells stably expressing Amyloid Precursor Protein (APP). Briefly: In vitro BACE cell-based assay (Aβ40 sandwich ELISA). Conditions: Homo sapiens. Summed up: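 Aβ40 in supernatants was measured by time-resolved fluorescence sandwich ELISA using pAb40 capture and biotinylated 6E10 detection, with antibody incubations at 4 °C. Stable APP cells were exposed to compounds for 24 h in a 10-point series (top dose 100 or 10 µM, 0.1% DMSO). IC50 was fitted from the concentration-response.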
In general terms: An ELISA detects its analyte on a solid surface through an enzyme-linked reagent.

Test [2] has as its target Beta Secretase enzyme (BACE) (Homo sapiens (Human), UniProt P56817). The experiment in a line: In vitro enzymatic BACE FRET assay. The test is classed as biochemical. Conditions: read-out: BACE 1 FRET assay IC50. In short, it runs like this:
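A quenched fluorophore-peptide spanning the BACE cleavage site served as substrate at 50 nM, with one-hour incubation in pH 4.2 acetate buffer containing 100 uM genapol and 10% DMSO final. Fluorescence was measured after quenching with Tris to neutral pH.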

A further test has as its target Cathepsin D (Cat D) (Homo sapiens (Human), UniProt P07339). Briefly: In vitro enzymatic Cathepsin D (Cat D) FRET assay. The test is classed as biochemical. Conditions: read-out: CatD IC50. Summed up: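 CHO-expressed recombinant Cat D cleaves a fluorophore/quencher FRET peptide (20 nM) in 0.05 M citrate pH 3.5, 5 mM CHAPS, 10% DMSO final, over 1 h. Tris addition neutralizes pH to stop the reaction; fluorescence read at excitation 500 nm, emission 580 nm.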

Setting [3] is: HEK293, HEK cells, average, read-out: HEK cell assay IC50.
[4] abbreviates: HEK293, average IC50, HEK cell assay, read-out: HEK cell assay IC50.
[5] abbreviates: average IC50, BACE enzyme assay.
Setting [6] is: average IC50, cathepsin D enzyme assay.
Setting [7] is: HEK293, average IC50, HEK cells, read-out: HEK cell assay IC50.
Setting [8] is: HEK293, read-out: HEK cell assay IC50.

Chain of Beta Secretase enzyme (BACE) (P56817 46-501): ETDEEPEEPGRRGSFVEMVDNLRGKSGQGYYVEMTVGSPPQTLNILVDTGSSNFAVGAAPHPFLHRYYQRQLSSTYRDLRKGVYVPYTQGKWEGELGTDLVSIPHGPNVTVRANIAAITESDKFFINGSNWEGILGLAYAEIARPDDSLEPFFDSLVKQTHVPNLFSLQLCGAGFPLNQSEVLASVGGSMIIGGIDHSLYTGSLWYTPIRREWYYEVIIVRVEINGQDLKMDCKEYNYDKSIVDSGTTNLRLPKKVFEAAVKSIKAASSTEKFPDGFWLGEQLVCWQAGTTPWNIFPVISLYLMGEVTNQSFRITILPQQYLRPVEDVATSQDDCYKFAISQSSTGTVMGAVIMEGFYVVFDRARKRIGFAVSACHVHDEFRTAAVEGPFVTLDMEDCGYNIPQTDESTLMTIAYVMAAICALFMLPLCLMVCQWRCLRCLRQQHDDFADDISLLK
Chain of Cathepsin D (Cat D) (P07339 65-412, species assumed): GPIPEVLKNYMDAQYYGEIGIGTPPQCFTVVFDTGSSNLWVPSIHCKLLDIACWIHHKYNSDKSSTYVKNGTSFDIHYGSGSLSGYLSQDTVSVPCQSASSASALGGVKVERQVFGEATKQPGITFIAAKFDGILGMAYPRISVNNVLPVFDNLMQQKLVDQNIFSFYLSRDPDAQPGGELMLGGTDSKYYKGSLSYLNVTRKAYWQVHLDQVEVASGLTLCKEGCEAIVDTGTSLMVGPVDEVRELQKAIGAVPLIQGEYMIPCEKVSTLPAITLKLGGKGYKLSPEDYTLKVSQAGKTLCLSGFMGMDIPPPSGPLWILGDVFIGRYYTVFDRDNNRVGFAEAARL

For `NC1=N[C@](CF)(c2cc(C#Cc3ccc4cc[nH]c4c3)ccc2F)C[C@@H](C(F)(F)F)O1` [Example 132, (4S,6S)-4-(5-((1H-indol-6-yl)ethynyl)-2-fluorophenyl)-4-(fluoromethyl)-6-(trifluoromethyl)-5,6-dihydro-4H-1,3-oxazin-2-amine], the half-maximal inhibitory concentration (IC50) was found to be 3.1 µM in test [1] (setting [3]), 2.2 µM in test [2] (average) and 721 µM on Cathepsin D (Cat D) (average).
As for `NC1=N[C@](CF)(c2cc(C#Cc3cccc4cc[nH]c34)ccc2F)C[C@@H](C(F)(F)F)O1` [Example 133, (4S,6S)-4-(5-((1H-indol-7-yl)ethynyl)-2-fluorophenyl)-4-(fluoromethyl)-6-(trifluoromethyl)-5,6-dihydro-4H-1,3-oxazin-2-amine], the 50% inhibitory concentration (IC50) in test [1] (setting [3]) is 4.6 µM; in test [2] (average), 5.6 µM; on Cathepsin D (Cat D) (average), 1130 µM.
As for `N#Cc1ccc(C(=O)Nc2ccc(F)c([C@]3(CF)C[C@@H](C(F)(F)F)OC(N)=N3)n2)nc1` [Example 134, N-(6-((4S,6S)-2-amino-4-(fluoromethyl)-6-(trifluoromethyl)-5,6-dihydro-4H-1,3-oxazin-4-yl)-5-fluoropyridin-2-yl)-5-cyanopicolinamide], the IC50 is 0.055 µM in test [1] (setting [4]), 0.079 µM in test [2] (setting [5]) and greater than 400 µM on Cathepsin D (Cat D) (setting [6]).
Consider `NC1=N[C@](CF)(c2nc(NC(=O)c3ccc(Cl)cn3)ccc2F)C[C@@H](C(F)(F)F)O1` [Example 136, N-(6-((4S,6S)-2-amino-4-(fluoromethyl)-6-(trifluoromethyl)-5,6-dihydro-4H-1,3-oxazin-4-yl)-5-fluoropyridin-2-yl)-5-chloropicolinamide], for which the IC50 is 0.132 µM in test [1] (setting [4]); greater than 15.6 µM in test [1] (setting [7]); 0.169 µM in test [2] (setting [5]); 32 µM in test [2] (average IC50); 717 µM on Cathepsin D (Cat D) (setting [6]); greater than 400 µM at Cathepsin D (Cat D) (average IC50).
On to `NC1=N[C@](CF)(c2cc(N)cnc2F)C[C@@H](C(F)(F)F)O1` [Example 138, (4S,6S)-4-(5-amino-2-fluoropyridin-3-yl)-4-(fluoromethyl)-6-(trifluoromethyl)-5,6-dihydro-4H-1,3-oxazin-2-amine], for which the 50% inhibitory concentration (IC50) in test [1] (setting [7]) is greater than 15.6 µM; in test [2] (average IC50) it was greater than 40 µM; on Cathepsin D (Cat D) (average IC50), greater than 400 µM.
In the case of `NC1=N[C@](CF)(c2cc(NC(=O)c3ccc(Cl)cn3)cnc2F)C[C@@H](C(F)(F)F)O1` [Example 139, N-(5-((4S,6S)-2-amino-4-(fluoromethyl)-6-(trifluoromethyl)-5,6-dihydro-4H-1,3-oxazin-4-yl)-6-fluoropyridin-3-yl)-5-chloropicolinamide], the concentration for half-maximal inhibition (IC50) in test [1] (setting [8]) was 0.418 µM; in test [2] (average IC50) it was 0.0965 µM; at Cathepsin D (Cat D) (average IC50), greater than 400 µM.
For the molecule `Cc1cc(C#N)cnc1C(=O)Nc1cnc(F)c([C@]2(CF)C[C@@H](C(F)(F)F)OC(N)=N2)c1` [Example 140, N-(5-((4S,6S)-2-amino-4-(fluoromethyl)-6-(trifluoromethyl)-5,6-dihydro-4H-1,3-oxazin-4-yl)-6-fluoropyridin-3-yl)-5-cyano-3-methylpicolinamide], the values for the IC50 (in test [1] (setting [7]); in test [2] (average IC50); on Cathepsin D (Cat D) (average IC50)) were 0.338 µM, 0.113 µM and greater than 400 µM, respectively.
For `N#Cc1ccc(C(=O)Nc2cnc(F)c([C@]3(CF)C[C@@H](C(F)(F)F)OC(N)=N3)c2)nc1` [Example 141, N-(5-((4S,6S)-2-amino-4-(fluoromethyl)-6-(trifluoromethyl)-5,6-dihydro-4H-1,3-oxazin-4-yl)-6-fluoropyridin-3-yl)-5-cyanopicolinamide], in that order: 0.639 µM, 0.171 µM and 1790 µM.
For `COc1ccc(C(=O)Nc2cnc(F)c([C@]3(CF)C[C@@H](C(F)(F)F)OC(N)=N3)c2)nc1` [Example 142, N-(5-((4S,6S)-2-amino-4-(fluoromethyl)-6-(trifluoromethyl)-5,6-dihydro-4H-1,3-oxazin-4-yl)-6-fluoropyridin-3-yl)-5-methoxypicolinamide], in that order: 0.587 µM, 0.114 µM and 5520 µM.
For `NC1=N[C@](CF)(c2cccc(NC(=O)c3ccc(Cl)cn3)c2)C[C@@H](C(F)(F)F)O1` [Example 143, N-(3-((4S,6S)-2-amino-4-(fluoromethyl)-6-(trifluoromethyl)-5,6-dihydro-4H-1,3-oxazin-4-yl)phenyl)-5-chloropicolinamide] the same measures were 0.154 µM, 0.117 µM and 2370 µM.
For the molecule `N#Cc1ccc(C(=O)Nc2cccc([C@]3(CF)C[C@@H](C(F)(F)F)OC(N)=N3)c2)nc1` [Example 144, N-(3-((4S,6S)-2-amino-4-(fluoromethyl)-6-(trifluoromethyl)-5,6-dihydro-4H-1,3-oxazin-4-yl)phenyl)-5-cyanopicolinamide], the results for the IC50 (in test [1] (setting [7]); in test [2] (average IC50); at Cathepsin D (Cat D) (average IC50)) were 0.067 µM, 0.0892 µM and 665 µM, respectively.
In the case of `NC1=N[C@](CF)(c2cccc(Nc3nccc4cc(Cl)cnc34)c2)C[C@@H](C(F)(F)F)O1` [Example 146, (4S,6S)-4-(3-((3-chloro-1,7-naphthyridin-8-yl)amino)phenyl)-4-(fluoromethyl)-6-(trifluoromethyl)-5,6-dihydro-4H-1,3-oxazin-2-amine], the concentration for half-maximal inhibition (IC50) stood at 0.119 µM in test [1] (setting [7]), 0.067 µM in test [2] (average IC50) and 733 µM at Cathepsin D (Cat D) (average IC50).
For `COc1ncc(NC(=O)c2ccc(Cl)cn2)cc1[C@]1(C)C[C@@H](C(F)(F)F)OC(N)=N1` [Example 147, N-(5-((4S,6S)-2-amino-4-methyl-6-(trifluoromethyl)-5,6-dihydro-4H-1,3-oxazin-4-yl)-6-methoxypyridin-3-yl)-5-chloropicolinamide] the same measures were 0.119 µM, 0.249 µM and 1420 µM.
With `Cn1cc(NC(=O)c2ccc(Cl)cn2)cc([C@]2(C)C[C@@H](C(F)(F)F)OC(N)=N2)c1=O` [Example 148, N-(5-((4S,6S)-2-amino-4-methyl-6-(trifluoromethyl)-5,6-dihydro-4H-1,3-oxazin-4-yl)-1-methyl-6-oxo-1,6-dihydropyridin-3-yl)-5-chloropicolinamide], the 50% inhibitory concentration (IC50) in test [1] (setting [8]) is 0.0127 µM; in test [2] (average IC50), 0.366 µM; at Cathepsin D (Cat D) (average IC50), greater than 400 µM.
For the molecule `Cn1cc(NC(=O)c2ccc(C#N)cn2)cc([C@]2(C)C[C@@H](C(F)(F)F)OC(N)=N2)c1=O` [Example 149, N-(5-((4S,6S)-2-amino-4-methyl-6-(trifluoromethyl)-5,6-dihydro-4H-1,3-oxazin-4-yl)-1-methyl-6-oxo-1,6-dihydropyridin-3-yl)-5-cyanopicolinamide], the IC50 in test [1] (setting [7]) is 0.021 µM; in test [2] (average IC50) it was 0.239 µM; at Cathepsin D (Cat D) (average IC50), greater than 400 µM.
`Cc1cc(C#N)cnc1C(=O)Nc1cc([C@]2(C)C[C@@H](C(F)(F)F)OC(N)=N2)c(=O)n(C)c1` [Example 150, N-(5-((4S,6S)-2-amino-4-methyl-6-(trifluoromethyl)-5,6-dihydro-4H-1,3-oxazin-4-yl)-1-methyl-6-oxo-1,6-dihydropyridin-3-yl)-5-cyano-3-methylpicolinamide]: the IC50 in test [1] (setting [7]) is 0.0101 µM; in test [2] (average IC50), 0.121 µM; on Cathepsin D (Cat D) (average IC50), greater than 400 µM.
Consider `NC1=N[C@](CF)(c2cc(NC(=O)c3ccc(Cl)cn3)cc(F)c2F)C[C@@H](C(F)(F)F)O1` [Example 152, N-(3-((4S,6S)-2-amino-4-(fluoromethyl)-6-(trifluoromethyl)-5,6-dihydro-4H-1,3-oxazin-4-yl)-4,5-difluorophenyl)-5-chloropicolinamide], for which the IC50 is 0.087 µM in test [1] (setting [4]), 0.026 µM in test [2] (setting [5]) and 2750 µM on Cathepsin D (Cat D) (setting [6]).
